Measured values published in patent publication US12569576B2, “Compositions and methods for measuring oxidative stress” (Washington University, priority 2020, dated 2026).
“And” between values parts separate entries of the source, which are not always exact repeats. Identical values can stand only once.

What was measured:
A549 cells [1] = experiment: Galuminox uptake in LPS-treated or serum/glucose deprived A549 cells with ROS-attenuating drugs; format: cell-based, human; conditions: LPS-treated or nutrient deprived A549 cells; Galuminox 20 μM 60 min
Experimental: For evaluation of therapeutic effects of drugs, such as Carvedilol (CAR), Dexrazoxane (DEX), and mitoTempo (MT) on either serum/glucose deprived media- or LPS-induced superoxide production, A549 cells were incubated with either LPS (1 μg/mL) or serum/glucose deprived (starvation) media for 24 h, and thereafter incubated with Carvedilol, Dexrazoxane, and mitoTempo 24 h at 37° C. Next day, media was removed from wells, cells were carefully rinsed with PBS (2×200 μL), fresh media (200 μL) was added, and cells were incubated with Galuminox (20 μM) at 37° C. for 60 min. For controls, untreated cells were incubated with Galuminox (20 μM) under identical conditions. Thereafter, fluorescence images were acquired, and cellular uptake was quantified as described above.

A549 cells [2] = experiment: Live cell fluorescence imaging, cellular accumulation in LPS-treated A549 cells; format: cell-based, human; conditions: LPS 1 μg/mL 24 h
Experimental: Human alveolar basal epithelial (A549) adenocarcinoma cells were grown in Dulbecco's Modified Eagle Medium (DMEM) supplemented with 1-glutamine (2 mM), penicillin/streptomycin (200 IU.) and heat-inactivated fetal calf serum (10%). The cells were grown at 37° C. under a 5% CO2 atmosphere.
Live cell fluorescence imaging studies were performed at Washington University Center for Cellular Imaging (WUCCI). For imaging studies, A549 cells or their mt-Keima transfected counterparts were plated onto borosilicate 8-well chambered coverglass (Labtek) and allowed to grow to approximately 70% confluence at 37° C. under 5% CO2 atmosphere in the culture media (200 μL) and treated with LPS (1 μg/mL) for 24 h. Following LPS treatments, all wells were rinsed with fresh media. […] Images were processed and analyzed using the ImageJ software package (NIH). […] For analysis, ROIs were drawn on cells of both channels, scatter plots were obtained, and Pearson's Correlation Coefficients (PCC) were determined as described previously (K. W. Dunn, M. M. Kamocka, J. H. McDonald. A practical guide to evaluating colocalization in biological microscopy. Am. J. Physiol. Cell Physiol., 300 (2011), pp. C723-C742.).

[3] = system: ROS activity in acutely injured lungs; experiment: Preclinical PET/CT imaging, mouse model of LPS-mediated acute lung injury; format: in vivo; conditions: for Standard Uptake Value (SUV) in lungs: n=4, frames 45-60 min
Experimental: All animal procedures were approved by the Washington University Animal Studies Committee. Imaging and biodistribution studies were performed in C57Bl6 mice (average weight, 24 g). Male mice (n=4) were treated either with LPS at a dose of 5 μg/g or vehicle (saline) 24 h prior to imaging/biodistribution studies. For these studies, mice were anesthetized with isoflurane (2.0%) via an induction chamber and maintained with a nose cone. After anesthetization, the mice were secured in a supine position and placed in an acrylic imaging tray. Following intravenous tail-vein administration of ^68Ga-Galuminox (100 μL; 100 μCi; 2% ethanol in saline, 3.7 MBq), dynamic preclinical PET scans were performed over 60 min, using Inveon PET/CT scanner (Siemens Medical Solutions). PET data were stored in list mode, and reconstruction was performed using a 3D-OSEM method with detector efficiency, decay, dead time, attenuation, and scatter corrections applied. For anatomical visualization, PET images were also co-registered with CT images from an Inveon PET/CT scanner. ROIs were drawn over the lung, and standard uptake values (SUV) were calculated as the mean radioactivity per injected dose per animal weight.

left transplanted lung = experiment: MicroPET/CT imaging in mouse lung transplant model of CLAD; format: in vivo, mice; conditions: 4 days post left lung transplant; PET/CT 30 min post injection, 20 min static scan
Experimental: The next experiment was an evaluation of Galuminox in a mouse lung transplant model of CLAD. Allogeneic (FVB) left lung recipients (B16 mice) were treated with immunosuppression agents CD40L and CTLA4Ig to induce tolerance. Despite treatment with immunosuppressant drugs, allogeneic transplants show OB lesions as a function of time, normally defined as early stages of disease progression (early CLAD) and late stages of disease progression (fulminant CLAD).
4 days post left lung transplant from FVB mice (donor) into B16 mice (acceptor), both transplanted mice and un-transplanted control counterparts were imaged using PET/CT 30 minutes post tail-vein administration of ^68Ga-Galuminox using static acquisition scan of 20 min (FIG. 12A). PET images were co-registered with CT for anatomical correlation. Standard Uptake Values (SUVs) were determined by drawing ROI, and counts were normalized to injected dose and weights of animals (FIG. 12B).

[4] = Biodistribution studies (post preclinical imaging); format: in vivo, C57Bl6 mice; conditions: for Biodistribution, Bladder / Biodistribution, Blood / Biodistribution, Bone / Biodistribution, Brain / Biodistribution, Colon / Biodistribution, Fat / Biodistribution, Heart / Biodistribution, Intestine / Biodistribution, Kidney / Biodistribution, Liver / Biodistribution, Lung / Biodistribution, Muscle: 60 min, mean, n=4
Source text: All animal procedures were approved by the Washington University Animal Studies Committee. Following microPET/CT imaging, mice (n=4) were euthanized by cervical dislocation. Blood samples were obtained by cardiac puncture, organs then harvested rapidly, and all tissue samples analyzed for γ-activity using Beckman Gamma 8000 counter. All samples were decay-corrected to the time the γ-counter was started. Standard samples were counted with the organs for each animal and represent […] of the injected dose. An additional dose was diluted into milliQ water (100 mL) and aliquots (1 mL) were counted with each mouse. Data were quantified as the percentage injected dose (% ID) per gram of tissue (tissue kBq (injected kBq)^−1 (g tissue)^−1×100) in Table 2, shown below.

[5] = LPS vs saline, 1 h post injection

## COc1ccccc1OCCNCC(O)COc1cccc2[nH]c3ccccc3c12 (stereo not drawn) [CAR, Carvedilol]
A549 cells [1]
  Galuminox probe uptake in the presence of the drug compared to control A549 cells: significantly decreased

## C[C@@H](CN1CC(=O)NC(=O)C1)N1CC(=O)NC(=O)C1 [DEX, Dexrazoxane]
A549 cells [1]
  Galuminox probe uptake in the presence of the drug compared to control A549 cells: significantly decreased

## CC1(C)CC(NC(=O)C[P+](c2ccccc2)(c2ccccc2)c2ccccc2)CC(C)(C)N1[O] [Mito-Tempo]
A549 cells [1]
  Galuminox probe uptake in the presence of the drug compared to control A549 cells: significantly decreased

## Nc1ccc2c(c1)C(c1ccccc1)N(CCCCCC[P+](c1ccccc1)(c1ccccc1)c1ccccc1)c1cc(N)ccc1-2.[I-] (stereo not drawn) [MitoSOX]
A549 cells [2]
  probe fluorescence, LPS stimulated vs untreated A549 control cells: higher fluorescence

## O=C(CNC(=S)Nc1ccc(CC2CN3CCN4CCN2CC(=O)[O][68Ga]([O]C(=O)C4)[O]C(=O)C3)cc1)Nc1cccc2c(=O)[nH][nH]c(=O)c12 (stereo not drawn) [^68Ga-Galuminox]
[3]; 0-60 min dynamic PET
  SUV time-activity curves, retention in lungs of LPS-treated mice: consistently higher and stable retention
[3]; LPS-treated mice (5 μg/g, 24 h)
  Standard Uptake Value (SUV) in lungs: 12.9±1.85
[3]; mouse, in vivo
  mode of excretion (PET pharmacokinetics): dominant renal mode of probe excretion
[3]; saline (vehicle) only treated mice
  Standard Uptake Value (SUV) in lungs: 2.62±0.48
Left transplanted lung
  higher uptake in the left transplanted lung compared with untransplanted mice (SUV): 1.5 fold
[4]; 1 h post injection
  excretion profiles (biodistribution): both hepatobiliary- and renal-modes of excretion
[4]; Control (saline)
  Biodistribution, Bladder: 162.956 % ID/g
  Biodistribution, Blood: 2.82±0.88 % ID/g and 2.822 % ID/g
  Biodistribution, Bone: 1.0±0.34 % ID/g and 1.002 % ID/g
  Biodistribution, Brain: 0.5693 % ID/g
  Biodistribution, Colon: 0.8617 % ID/g
  Biodistribution, Fat: 0.6117 % ID/g
  Biodistribution, Heart: 2.381 % ID/g
  Biodistribution, Intestine: 4.286 % ID/g
  Biodistribution, Kidney: 13.0965 % ID/g
  Biodistribution, Liver: 6.14±0.66 % ID/g and 6.138 % ID/g
  Biodistribution, Lung: 39.7±19.3 % ID/g and 39.7 % ID/g
  Biodistribution, Muscle: 1.084 % ID/g
[4]; LPS treated
  Biodistribution, Bladder: 5.893 % ID/g
  Biodistribution, Blood: 3.96±1.83 % ID/g and 3.96 % ID/g
  Biodistribution, Bone: 2.14±0.57 % ID/g and 2.138 % ID/g
  Biodistribution, Brain: 0.2628 % ID/g
  Biodistribution, Colon: 0.2924 % ID/g
  Biodistribution, Fat: 0.3021 % ID/g
  Biodistribution, Heart: 1.073 % ID/g
  Biodistribution, Intestine: 1.314 % ID/g
  Biodistribution, Kidney: 3.048 % ID/g
  Biodistribution, Liver: 10.5±1.68 % ID/g and 10.46 % ID/g
  Biodistribution, Lung: 147.9±25.8 % ID/g and 147.8875 % ID/g
  Biodistribution, Muscle: 0.294 % ID/g
[4]; [5]
  bone retention, LPS vs saline: 2.1 fold
  higher retention in lungs of LPS treated mice vs saline-only (biodistribution): 4 fold
  higher retention in the blood of LPS treated mice vs saline: 1.4 fold
  liver retention, LPS vs saline: 1.7 fold
[4]; lung 4 fold / blood 1.4 fold
  higher specific retention in lungs of LPS treated mice (lung normalized to blood): 3 fold and 2.85 fold
